For eight compounds, TGI and GI50 results are on record in PubChem BioAssay (NCI).

What all share (experiment): inhibition of tumour cell growth, NCI panel, 48 h
Assay [1] has as its system LOX IMVI melanoma.
Assay [2] relates to SW-620 colon.
Assay [3] relates to SK-MEL-28 melanoma.
The subject of assay [4] is SNB-19 CNS.
The subject of assay [5] is TK-10 renal.
Assay [6] has as its system HS 578T breast.
Assay [7] deals with HCT-116 colon.
For assay [8], the system named is NCI-H23 lung.
For assay [9], the system named is SF-295 CNS.
Assay [10] deals with MCF7 breast.

Where “and” joins values, the source holds several entries; their conditions need not be identical. Equal values may be shown once.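 Protocol summary: plate cells (96-well), add compound at 5 concentrations, incubate 48 h, interpolate endpoints linearly. Here, GI50 denotes the concentration required for 50% inhibition of growth. TGI is the concentration that stops growth completely.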

As to `Nc1nc(C(=O)O)c(N=Nc2ccccc2)c(=O)[nH]1`, the TGI in assay [1], in [2], in [3], in [4], in assay [5] and in assay [6] was greater than 100 µM throughout. For the same compound, the TGI in [7], in [8], in [9] and in assay [10] was greater than 100 µM each time.

For `N#Cc1c(NC(=O)c2ccccc2F)sc2c1CCCC2`, the GI50 was greater than 25 µM in assay [1]; 8.77 µM in assay [2]; greater than 25 µM in [3]; greater than 25 µM in assay [4]; greater than 25 µM in [5]; greater than 21.9 µM in [6]. Moreover, the GI50 in [7] is greater than 25 µM; in [8], greater than 25 µM; in assay [9], greater than 25 µM; in assay [10], greater than 19.5 µM. Also, the TGI in [1], in assay [2], in [3], in assay [4], in assay [5] and in assay [6] was greater than 25 µM throughout. Further, the TGI in assay [7], in assay [8], in assay [9] and in [10] was greater than 25 µM in each case.

As for `C=CC(=O)N[C@@H](/C=C/C(=O)OCC)Cc1ccc(-c2cc(Cl)cc(Cl)c2)cc1`, the GI50 in assay [1] was 14.2 µM; in assay [2] it was 17 µM; in [3] it was 18.1 µM; in assay [4] it was 16.5 µM; in [5], 21.9 µM; in assay [6], 16.3 µM. Moreover, the GI50 is 5.29 µM in assay [7], 11.8 µM in [8], 13.5 µM in assay [9] and 5.92 µM in assay [10]. Further, the TGI in assay [1] is 35.6 µM; in assay [2], 83.2 µM; in assay [3], 79.8 µM; in assay [4], greater than 100 µM; in assay [5], 97.7 µM; in assay [6], 78.4 µM. Also, the TGI in assay [7] is 34.2 µM; in [8], greater than 100 µM; in [9] it was 83.5 µM; in assay [10], 66.4 µM.

Take `COC1=C(OC)[C@]2(OC)c3c(O)c(OC)c4c(c3O[C@@]23O[C@@H](c2ccccc2)CC=C3C1=O)[C@@H](OC)C[C@H](c1ccccc1)O4`: the GI50 in assay [1] is 1.58 µM; in assay [2], 0.178 µM; in assay [3], 0.591 µM; in [4], 1.81 µM; in [5], 0.821 µM; in [6], 0.896 µM. Besides, the GI50 was 0.226 µM in assay [7], 0.277 µM in assay [8], 1.56 µM in assay [9] and 0.265 µM in assay [10]. For the same compound, the TGI in assay [1] was 3.31 µM; in assay [2] it was 0.933 µM; in assay [3] it was 1.49 µM; in [4], 3.51 µM; in assay [5], 1.93 µM; in assay [6], 3.66 µM. In addition, the TGI in [7] was 0.517 µM; in [8] it was 1.01 µM; in assay [9], 2.97 µM; in assay [10] it was 1.36 µM.

For `C[C@H]1CN(C2COC2)CCN1c1ccc(Nc2cc(-c3ccnc(N4CCn5c(cc6c5CC(C)(C)C6)C4=O)c3CO)cn(C)c2=O)nc1`, the GI50 is 29.8 µM in assay [1]; 47.8 µM in assay [2]; 39.8 µM in [3]; 51.2 µM in assay [4]; 38.7 µM in [5]; 27.7 µM in assay [6]. The GI50 is 38.4 µM in [7], greater than 100 µM in assay [8], 68.6 µM in assay [9] and 28.7 µM in [10]. The TGI in assay [1], in assay [2], in assay [3], in assay [4], in assay [5] and in assay [6] was greater than 100 µM throughout. Moreover, the TGI in [7], in assay [8], in [9] and in assay [10] was greater than 100 µM throughout.

Consider `O=C(c1cc(Cc2n[nH]c(=O)c3ccccc23)ccc1F)N1CCN(C(=O)C2CC2)CC1`, for which the GI50 in [1] is 18.9 µM and 66.3 µM; in assay [2], 64.4 µM and > 94.1 µM; in assay [3] it was greater than 100 µM; in assay [4] it was 80.5 µM and > 85.1 µM; in assay [5], > 100 µM and 48.1 µM; in assay [6] it was 12.4 µM and > 100 µM. Besides, the GI50 was > 100 µM and 99.1 µM in assay [7]; 23.6 µM and 40.3 µM in assay [8]; 47.4 µM and 34.2 µM in assay [10]. For the same compound, the TGI in assay [1], in [2], in assay [3], in assay [4], in [5] and in [6] was greater than 100 µM in each case. Besides, the TGI in assay [7] is greater than 100 µM; in [8], greater than 100 µM; in [9], 23.4 µM and > 100 µM; in assay [10], greater than 100 µM.

For the compound `O=c1[nH]c2ccccc2n1C1CCN(CCCC(c2ccc(F)cc2)c2ccc(F)cc2)CC1`, the GI50 in assay [1] is 1.61 µM and 2.55 µM; in assay [2], 1.75 µM and 4.5 µM; in assay [3], 1.61 µM; in assay [4] it was 1.67 µM; in assay [5], 1.54 µM and 6.93 µM; in [6], 1.83 µM and 7.71 µM. Moreover, the GI50 in assay [7] was 1.44 µM and 5.67 µM; in [8], 1.51 µM and 9.1 µM; in assay [9] it was 1.5 µM; in assay [10], 1.59 µM and 5.3 µM. For the same compound, the TGI in assay [1] was 3.02 µM and 6.62 µM; in assay [2] it was 3.41 µM and 13.8 µM; in assay [3] it was 2.99 µM and 5.86 µM; in [4] it was 3.29 µM and 28.8 µM; in [5], 2.95 µM and 16.1 µM; in [6] it was 4.47 µM and 24.8 µM. The TGI was 3.14 µM and 17.8 µM in assay [7]; 3.18 µM and 24.3 µM in assay [8]; 3.02 µM and 14.5 µM in assay [9]; 3.1 µM and 11.8 µM in assay [10].

As for `COc1cc(C(=O)/C=C/c2c(C(F)(F)F)nc3ccccn23)cc(OC)c1OC`, the GI50 in [1] was 1.66 µM; in assay [2] it was 1.68 µM; in assay [3], 1.93 µM; in assay [4], 1.93 µM; in assay [5] it was 2.09 µM; in assay [6], 3.27 µM. Moreover, the GI50 was 1.26 µM in assay [7], 1.51 µM in assay [8], 1.99 µM in assay [9] and 1.44 µM in assay [10]. For the same compound, the TGI stood at 3.77 µM in assay [1]; 4.24 µM in [2]; 3.74 µM in assay [3]; 3.85 µM in [4]; 4.33 µM in assay [5]; 54.6 µM in assay [6]. For the same compound, the TGI in [7] was 3.21 µM; in assay [8], 4.01 µM; in [9], 3.92 µM; in assay [10], 6.41 µM.
